Assay results: ChEMBL document CHEMBL5653631, “A Potent and Selective ULK1 Inhibitor Suppresses Autophagy and Sensitizes Cancer Cells to Nutrient Stress” (iScience, 2018)
Each block holds one molecule with its values, some of them ahead of it.

Tests used:
[1] = target: T1, Testis-specific serine/threonine-protein kinase 4 (Homo sapiens) (UniProt Q6SA08); assay: Inhibition of human recombinant TSSK4 at 500 nM in presence of ATP by radiometric assay relative to control
T1 sequence (whole entry): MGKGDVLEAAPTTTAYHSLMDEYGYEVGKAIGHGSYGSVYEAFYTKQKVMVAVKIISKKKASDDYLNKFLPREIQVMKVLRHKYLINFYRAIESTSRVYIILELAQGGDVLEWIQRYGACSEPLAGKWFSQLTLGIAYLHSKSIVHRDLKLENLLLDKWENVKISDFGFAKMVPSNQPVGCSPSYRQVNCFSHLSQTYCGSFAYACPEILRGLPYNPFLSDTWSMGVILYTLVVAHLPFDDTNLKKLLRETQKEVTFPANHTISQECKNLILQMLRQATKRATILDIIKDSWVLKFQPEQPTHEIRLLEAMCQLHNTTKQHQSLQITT

[2] = target: Tyrosine-protein kinase Lyn (Homo sapiens) (UniProt P07948); assay: Inhibition of human recombinant LYN at 500 nM related to control ULK1
[3] = target: T2, Tyrosine-protein kinase JAK3 (Homo sapiens) (UniProt P52333); assay: Inhibition of human recombinant JAK3 at 500 nM related to control ULK1
T2 sequence (whole entry): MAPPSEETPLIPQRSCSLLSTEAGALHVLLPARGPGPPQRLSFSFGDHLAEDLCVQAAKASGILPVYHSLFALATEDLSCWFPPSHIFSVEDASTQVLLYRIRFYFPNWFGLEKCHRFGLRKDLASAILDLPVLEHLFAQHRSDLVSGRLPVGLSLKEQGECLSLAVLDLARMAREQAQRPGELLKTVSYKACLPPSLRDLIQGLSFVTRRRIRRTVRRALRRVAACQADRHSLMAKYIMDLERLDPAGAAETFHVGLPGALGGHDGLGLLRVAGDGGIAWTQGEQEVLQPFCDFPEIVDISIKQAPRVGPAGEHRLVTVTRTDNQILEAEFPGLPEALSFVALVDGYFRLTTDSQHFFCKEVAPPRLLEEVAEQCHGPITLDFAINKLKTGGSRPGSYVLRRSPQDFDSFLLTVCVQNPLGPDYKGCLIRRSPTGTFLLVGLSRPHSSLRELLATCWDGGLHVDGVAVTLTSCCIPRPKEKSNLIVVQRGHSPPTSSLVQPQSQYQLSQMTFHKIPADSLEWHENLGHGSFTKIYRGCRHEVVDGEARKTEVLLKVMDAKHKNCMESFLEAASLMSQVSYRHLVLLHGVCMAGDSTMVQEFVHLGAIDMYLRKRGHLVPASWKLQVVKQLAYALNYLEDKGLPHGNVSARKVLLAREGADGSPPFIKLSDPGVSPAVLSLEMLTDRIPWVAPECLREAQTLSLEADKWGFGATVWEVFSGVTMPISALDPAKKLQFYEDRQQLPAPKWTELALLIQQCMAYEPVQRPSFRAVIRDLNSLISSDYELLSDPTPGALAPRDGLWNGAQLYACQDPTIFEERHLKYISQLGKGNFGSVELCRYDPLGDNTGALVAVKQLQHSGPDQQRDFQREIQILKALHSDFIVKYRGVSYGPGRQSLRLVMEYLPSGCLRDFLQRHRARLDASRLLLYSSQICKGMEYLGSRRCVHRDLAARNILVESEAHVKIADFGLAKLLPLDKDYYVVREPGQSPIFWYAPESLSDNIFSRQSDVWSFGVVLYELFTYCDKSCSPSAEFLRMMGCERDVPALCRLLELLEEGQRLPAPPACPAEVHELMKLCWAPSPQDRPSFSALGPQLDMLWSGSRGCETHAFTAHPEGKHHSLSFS

[4] = target: RAF proto-oncogene serine/threonine-protein kinase (Homo sapiens) (UniProt P04049); assay: Inhibition of human recombinant RAF1 at 500 nM in presence of ATP by radiometric assay relative to control
[5] = target: Ribosomal protein S6 kinase alpha-5 (Homo sapiens) (UniProt O75582); assay: Inhibition of human recombinant MSK1 at 500 nM in presence of ATP by radiometric assay relative to control
[6] = target: Mitogen-activated protein kinase kinase kinase kinase 4 (Homo sapiens) (UniProt O95819); assay: Inhibition of human recombinant HGK at 15 nM in presence of ATP by radiometric assay relative to control
[7] = target: Tyrosine-protein kinase FRK (Homo sapiens) (UniProt P42685); assay: Inhibition of human recombinant FRK at 15 nM in presence of ATP by radiometric assay relative to control
[8] = target: Cyclin-dependent kinase-like 1 (Homo sapiens) (UniProt Q00532); assay: Inhibition of human recombinant CDKL1 at 15 nM in presence of ATP by radiometric assay relative to control
[9] = target: Platelet-derived growth factor receptor beta (Homo sapiens) (UniProt P09619); assay: Inhibition of human recombinant PDGFRb at 15 nM in presence of ATP by radiometric assay relative to control
[10] = target: Dual specificity tyrosine-phosphorylation-regulated kinase 1B (Homo sapiens) (UniProt Q9Y463); assay: Inhibition of human recombinant DYRK1B at 40 nM related to control ULK1
[11] = target: Cyclin-dependent kinase 9 (Homo sapiens) (UniProt P50750); assay: Inhibition of human recombinant CDK9 at 40 nM related to control ULK1
[12] = target: Eukaryotic translation initiation factor 2-alpha kinase 1 (Homo sapiens) (UniProt Q9BQI3); assay: Inhibition of human recombinant HRI at 40 nM related to control ULK1
[13] = target: Receptor tyrosine-protein kinase erbB-2 (Homo sapiens) (UniProt P04626); assay: Inhibition of human recombinant ErbB2 at 40 nM in presence of ATP by radiometric assay relative to control
[14] = target: Casein kinase II subunit alpha' (Homo sapiens) (UniProt P19784); assay: Inhibition of human recombinant CK2a2 at 40 nM related to control ULK1
[15] = target: Mitogen-activated protein kinase 8 (Homo sapiens) (UniProt P45983); assay: Inhibition of human recombinant JNK1 at 40 nM related to control ULK1
[16] = target: Serine/threonine-protein kinase 38-like (Homo sapiens) (UniProt Q9Y2H1); assay: Inhibition of human recombinant NDR2 at 40 nM related to control ULK1
Chain of Serine/threonine-protein kinase 38-like (Homo sapiens) (Q9Y2H1 2-464 limits assumed): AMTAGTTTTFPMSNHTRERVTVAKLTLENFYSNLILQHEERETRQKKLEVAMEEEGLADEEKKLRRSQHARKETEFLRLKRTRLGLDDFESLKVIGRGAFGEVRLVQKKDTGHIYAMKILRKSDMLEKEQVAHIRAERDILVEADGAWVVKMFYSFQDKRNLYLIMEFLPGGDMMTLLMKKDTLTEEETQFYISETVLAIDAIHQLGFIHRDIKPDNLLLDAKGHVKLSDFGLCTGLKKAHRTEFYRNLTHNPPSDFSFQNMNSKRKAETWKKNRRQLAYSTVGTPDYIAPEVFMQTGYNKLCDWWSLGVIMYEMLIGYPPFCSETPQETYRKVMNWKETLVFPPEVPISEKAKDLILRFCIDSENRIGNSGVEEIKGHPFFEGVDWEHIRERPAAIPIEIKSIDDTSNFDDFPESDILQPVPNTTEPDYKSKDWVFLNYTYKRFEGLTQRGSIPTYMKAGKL

Chain of Eukaryotic translation initiation factor 2-alpha kinase 1 (Homo sapiens) (Q9BQI3 whole entry): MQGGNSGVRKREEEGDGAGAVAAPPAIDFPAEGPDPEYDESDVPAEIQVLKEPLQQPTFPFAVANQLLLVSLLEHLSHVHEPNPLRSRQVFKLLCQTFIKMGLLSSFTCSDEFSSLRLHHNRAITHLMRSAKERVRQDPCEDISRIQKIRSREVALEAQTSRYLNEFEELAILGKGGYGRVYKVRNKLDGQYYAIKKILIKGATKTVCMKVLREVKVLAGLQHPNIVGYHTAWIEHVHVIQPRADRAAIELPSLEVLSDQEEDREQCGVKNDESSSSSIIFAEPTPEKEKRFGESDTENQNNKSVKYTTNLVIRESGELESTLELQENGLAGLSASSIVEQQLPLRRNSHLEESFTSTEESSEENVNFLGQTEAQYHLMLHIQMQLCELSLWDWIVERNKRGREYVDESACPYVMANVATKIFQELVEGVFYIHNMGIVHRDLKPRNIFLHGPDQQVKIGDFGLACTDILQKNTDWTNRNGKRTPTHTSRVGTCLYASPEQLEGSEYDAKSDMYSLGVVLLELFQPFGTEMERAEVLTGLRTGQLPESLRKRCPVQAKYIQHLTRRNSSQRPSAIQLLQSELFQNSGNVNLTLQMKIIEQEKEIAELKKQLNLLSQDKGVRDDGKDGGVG
Chain of Platelet-derived growth factor receptor beta (Homo sapiens) (P09619 whole entry): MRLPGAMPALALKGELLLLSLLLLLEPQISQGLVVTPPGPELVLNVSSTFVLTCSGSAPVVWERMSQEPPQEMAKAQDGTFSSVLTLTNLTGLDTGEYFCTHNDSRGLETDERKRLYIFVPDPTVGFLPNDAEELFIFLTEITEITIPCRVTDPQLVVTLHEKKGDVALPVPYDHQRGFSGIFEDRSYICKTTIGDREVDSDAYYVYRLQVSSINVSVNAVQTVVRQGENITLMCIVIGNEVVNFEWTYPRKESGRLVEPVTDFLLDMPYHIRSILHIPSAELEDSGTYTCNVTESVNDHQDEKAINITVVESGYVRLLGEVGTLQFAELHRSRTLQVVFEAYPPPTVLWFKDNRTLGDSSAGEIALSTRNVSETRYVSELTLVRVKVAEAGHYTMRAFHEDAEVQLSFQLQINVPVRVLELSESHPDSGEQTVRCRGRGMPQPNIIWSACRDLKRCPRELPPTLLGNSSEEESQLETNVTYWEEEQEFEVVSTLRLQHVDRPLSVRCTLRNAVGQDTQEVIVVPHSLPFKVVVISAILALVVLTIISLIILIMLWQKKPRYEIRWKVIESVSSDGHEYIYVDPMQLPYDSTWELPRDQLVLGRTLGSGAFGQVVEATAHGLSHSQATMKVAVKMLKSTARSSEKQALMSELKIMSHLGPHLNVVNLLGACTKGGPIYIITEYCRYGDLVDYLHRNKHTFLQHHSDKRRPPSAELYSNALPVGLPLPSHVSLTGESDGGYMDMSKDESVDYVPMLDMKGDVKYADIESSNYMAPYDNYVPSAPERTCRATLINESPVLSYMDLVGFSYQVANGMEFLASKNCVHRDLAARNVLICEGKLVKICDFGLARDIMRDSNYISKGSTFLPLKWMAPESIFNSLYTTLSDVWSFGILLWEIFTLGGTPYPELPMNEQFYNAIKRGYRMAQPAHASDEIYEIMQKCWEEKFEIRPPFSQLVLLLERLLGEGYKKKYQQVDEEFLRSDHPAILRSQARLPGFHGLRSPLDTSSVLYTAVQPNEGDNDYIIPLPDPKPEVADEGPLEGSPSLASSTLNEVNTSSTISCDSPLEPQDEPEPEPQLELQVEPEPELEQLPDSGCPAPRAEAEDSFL
Chain of Mitogen-activated protein kinase kinase kinase kinase 4 (Homo sapiens) (O95819 2-1239 limits assumed): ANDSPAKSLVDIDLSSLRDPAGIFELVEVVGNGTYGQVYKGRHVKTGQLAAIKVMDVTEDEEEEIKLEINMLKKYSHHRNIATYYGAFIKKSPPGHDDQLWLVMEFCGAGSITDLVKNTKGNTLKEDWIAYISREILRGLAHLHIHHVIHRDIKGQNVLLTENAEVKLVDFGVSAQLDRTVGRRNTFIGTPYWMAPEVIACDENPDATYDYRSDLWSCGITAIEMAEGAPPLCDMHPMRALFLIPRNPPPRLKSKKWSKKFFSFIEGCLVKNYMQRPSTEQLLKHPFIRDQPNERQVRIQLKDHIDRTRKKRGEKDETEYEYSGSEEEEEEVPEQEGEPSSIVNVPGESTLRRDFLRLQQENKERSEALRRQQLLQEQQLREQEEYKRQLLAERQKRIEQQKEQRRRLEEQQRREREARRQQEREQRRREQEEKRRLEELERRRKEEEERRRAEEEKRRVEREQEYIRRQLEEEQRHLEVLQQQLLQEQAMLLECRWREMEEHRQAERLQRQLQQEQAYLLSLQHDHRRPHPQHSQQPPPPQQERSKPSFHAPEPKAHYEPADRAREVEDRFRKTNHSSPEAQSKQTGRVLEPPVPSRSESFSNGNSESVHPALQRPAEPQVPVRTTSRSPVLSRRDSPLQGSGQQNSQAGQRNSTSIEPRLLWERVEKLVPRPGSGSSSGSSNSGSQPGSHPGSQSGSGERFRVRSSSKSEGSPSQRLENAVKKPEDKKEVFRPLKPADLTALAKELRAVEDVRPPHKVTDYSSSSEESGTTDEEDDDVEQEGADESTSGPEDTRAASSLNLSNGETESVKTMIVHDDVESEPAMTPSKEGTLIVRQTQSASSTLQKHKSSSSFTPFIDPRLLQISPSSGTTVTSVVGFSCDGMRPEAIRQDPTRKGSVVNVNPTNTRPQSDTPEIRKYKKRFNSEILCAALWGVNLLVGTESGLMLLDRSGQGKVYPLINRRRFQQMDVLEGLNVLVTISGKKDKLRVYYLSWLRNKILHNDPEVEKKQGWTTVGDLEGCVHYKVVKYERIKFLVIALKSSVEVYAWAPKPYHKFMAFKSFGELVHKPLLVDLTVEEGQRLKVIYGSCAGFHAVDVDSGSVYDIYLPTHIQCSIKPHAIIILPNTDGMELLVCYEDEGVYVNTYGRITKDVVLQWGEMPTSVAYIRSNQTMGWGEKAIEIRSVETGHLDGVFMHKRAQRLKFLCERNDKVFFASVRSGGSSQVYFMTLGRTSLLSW
Chain of RAF proto-oncogene serine/threonine-protein kinase (Homo sapiens) (P04049 whole entry): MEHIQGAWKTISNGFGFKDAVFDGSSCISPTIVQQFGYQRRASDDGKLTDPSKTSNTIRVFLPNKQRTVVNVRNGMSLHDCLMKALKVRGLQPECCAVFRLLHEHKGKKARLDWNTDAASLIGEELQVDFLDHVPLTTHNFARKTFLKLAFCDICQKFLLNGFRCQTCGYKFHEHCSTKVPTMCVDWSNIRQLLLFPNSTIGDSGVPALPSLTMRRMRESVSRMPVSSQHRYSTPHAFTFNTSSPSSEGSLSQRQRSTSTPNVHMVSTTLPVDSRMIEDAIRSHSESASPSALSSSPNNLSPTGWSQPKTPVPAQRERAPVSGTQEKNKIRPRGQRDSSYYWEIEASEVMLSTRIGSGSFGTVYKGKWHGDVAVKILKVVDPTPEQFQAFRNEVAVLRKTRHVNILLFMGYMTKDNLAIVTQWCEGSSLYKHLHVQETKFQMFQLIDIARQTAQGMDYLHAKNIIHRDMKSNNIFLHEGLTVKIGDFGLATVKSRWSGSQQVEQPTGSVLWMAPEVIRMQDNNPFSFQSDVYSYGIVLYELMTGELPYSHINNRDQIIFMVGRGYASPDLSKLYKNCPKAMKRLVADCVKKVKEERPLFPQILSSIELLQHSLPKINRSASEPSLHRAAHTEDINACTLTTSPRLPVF
Chain of Casein kinase II subunit alpha' (Homo sapiens) (P19784 whole entry, looked up): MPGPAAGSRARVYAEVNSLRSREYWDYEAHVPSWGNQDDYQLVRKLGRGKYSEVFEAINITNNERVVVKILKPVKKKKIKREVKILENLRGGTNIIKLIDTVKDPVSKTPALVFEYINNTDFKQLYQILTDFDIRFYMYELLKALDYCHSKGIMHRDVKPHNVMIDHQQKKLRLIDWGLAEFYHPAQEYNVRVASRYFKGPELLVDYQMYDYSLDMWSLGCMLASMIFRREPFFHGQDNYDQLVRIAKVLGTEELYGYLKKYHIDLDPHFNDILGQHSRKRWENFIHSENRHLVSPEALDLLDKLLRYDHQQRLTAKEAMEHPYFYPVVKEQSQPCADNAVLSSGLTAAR
Chain of Cyclin-dependent kinase-like 1 (Homo sapiens) (Q00532 whole entry): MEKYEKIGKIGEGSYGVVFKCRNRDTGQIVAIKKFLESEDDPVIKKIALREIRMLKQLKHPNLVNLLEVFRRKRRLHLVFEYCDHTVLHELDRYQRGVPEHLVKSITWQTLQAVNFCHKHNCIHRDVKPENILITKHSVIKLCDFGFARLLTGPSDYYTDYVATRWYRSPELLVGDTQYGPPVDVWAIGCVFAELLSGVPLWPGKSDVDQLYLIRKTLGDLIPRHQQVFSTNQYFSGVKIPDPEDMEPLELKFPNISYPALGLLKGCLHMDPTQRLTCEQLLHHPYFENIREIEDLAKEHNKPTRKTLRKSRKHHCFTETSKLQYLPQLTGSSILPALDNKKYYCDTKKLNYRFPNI

inhibition [1]: 0% | fold change (FC) [2]: 0.41 | fold change (FC) [3]: 0.28 | inhibition [4]: 11% | inhibition [5]: 11%
SMILES: CNC(=O)c1ccccc1Oc1nc(Nc2cc(OC)c(OC)c(OC)c2)ncc1Br

inhibition [6]: 0% | inhibition [7]: 13% | inhibition [8]: 24% | inhibition [9]: 0%
SMILES: CC(C)[C@H](NC(=O)c1cc(-c2cnn3cc(-c4ccc(OCCN5CCCCC5)cc4)cnc23)cs1)C(F)(F)F

fold change (FC) [10]: 0.42 | fold change (FC) [11]: 0 | fold change (FC) [12]: 0.01 | inhibition [13]: 0% | fold change (FC) [14]: 0.11 | fold change (FC) [15]: 0 | fold change (FC) [16]: 0
SMILES: O=C(N[C@@H](C1CC1)C(F)(F)F)c1cc(-c2cnn3cc(-c4ccc(F)cc4)cnc23)cs1
